Laboratory results published in PubChem BioAssay AID248 (DTP/NCI, 2004).
Where “and” joins values, the source holds several entries; their conditions need not be identical. Equal values may be shown once. Inconclusive results and toxic doses are left out. Rule as the data show it: active = T/C of 150% or more; inactive = T/C below 125%.

Tested on: L1210 leukemia ip in BDF1 mice, survival T/C
Assay: NCI In Vivo Anticancer Drug Screen. Data for tumor model L1210 Leukemia (intraperitoneal) in B6D2F1 (BDF1) mice
Settings: endpoint: mean survival time, higher = longer survival
Outline: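 Each compound was tested against a transplantable tumor grown in mice. The endpoint was survival, with treated animals benchmarked against vehicle controls as a simple ratio.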

[1] = dose: 100.0 mg/kg/injection, schedule: Q01DX009 (ip), vehicle: saline with Tween-80
[2] = dose: 100.0 mg/kg/injection, schedule: Q04DX003 (ip), vehicle: saline with Tween-80
[3] = dose: 200.0 mg/kg/injection, schedule: Q01DX009 (ip), vehicle: saline with Tween-80
[4] = dose: 200.0 mg/kg/injection, schedule: Q04DX003 (ip), vehicle: saline with Tween-80
[5] = dose: 400.0 mg/kg/injection, schedule: Q04DX003 (ip), vehicle: saline with Tween-80
[6] = dose: 50.0 mg/kg/injection, schedule: Q01DX009 (ip), vehicle: saline
[7] = dose: 50.0 mg/kg/injection, schedule: Q04DX003 (ip), vehicle: saline
[8] = dose: 100.0 mg/kg/injection, schedule: Q01DX001 (ip), vehicle: saline
[9] = dose: 100.0 mg/kg/injection, schedule: Q01DX009 (ip), vehicle: saline
[10] = dose: 100.0 mg/kg/injection, schedule: Q04DX003 (ip), vehicle: saline
[11] = dose: 200.0 mg/kg/injection, schedule: Q01DX001 (ip), vehicle: saline
[12] = dose: 200.0 mg/kg/injection, schedule: Q04DX003 (ip), vehicle: saline
[13] = dose: 50.0 mg/kg/injection, schedule: Q01DX009 (ip), vehicle: Klucel (hydroxypropylcellulose) (HPC)
[14] = dose: 100.0 mg/kg/injection, schedule: Q04DX003 (ip), vehicle: Klucel (hydroxypropylcellulose) (HPC)
[15] = dose: 200.0 mg/kg/injection, schedule: Q04DX003 (ip), vehicle: Klucel (hydroxypropylcellulose) (HPC)
[16] = dose: 200.0 mg/kg/injection, schedule: Q01DX009 (ip), vehicle: saline
[17] = dose: 400.0 mg/kg/injection, schedule: Q04DX003 (ip), vehicle: saline
[18] = dose: 100.0 mg/kg/injection, schedule: Q01DX001 (ip), vehicle: carboxymethylcellulose (CMC)

Measured: T/C

COc1cc(C(=O)OC2CC34CCNC35CC(OC5(OC)C2O)c2cc3c(cc24)OCO3)ccc1O (stereo not drawn)
inactive: dose: 0.25 mg/kg/injection, schedule: Q01DX015 (ip), vehicle: carboxymethylcellulose (CMC) 100 % of control | dose: 0.5 mg/kg/injection, schedule: Q01DX015 (ip), vehicle: carboxymethylcellulose (CMC) 100 % of control | dose: 0.75 mg/kg/injection, schedule: Q01DX015 (ip), vehicle: carboxymethylcellulose (CMC) 103 % of control | dose: 1.0 mg/kg/injection, schedule: Q01DX009 (ip), vehicle: carboxymethylcellulose (CMC) 95 % of control | dose: 1.0 mg/kg/injection, schedule: Q01DX015 (ip), vehicle: carboxymethylcellulose (CMC) 104 % of control and 108 % of control | dose: 1.25 mg/kg/injection, schedule: Q01DX015 (ip), vehicle: carboxymethylcellulose (CMC) 96 % of control | dose: 1.5 mg/kg/injection, schedule: Q01DX015 (ip), vehicle: carboxymethylcellulose (CMC) 102 % of control | dose: 1.75 mg/kg/injection, schedule: Q01DX015 (ip), vehicle: carboxymethylcellulose (CMC) 98 % of control | dose: 2.0 mg/kg/injection, schedule: Q01DX009 (ip), vehicle: carboxymethylcellulose (CMC) 92 % of control | dose: 2.0 mg/kg/injection, schedule: Q01DX015 (ip), vehicle: carboxymethylcellulose (CMC) 93 % of control | dose: 2.5 mg/kg/injection, schedule: Q01DX015 (ip), vehicle: carboxymethylcellulose (CMC) 96 % of control

COc1ccc(Br)cc1/C=N/N=C/c1cc(Br)ccc1OC
inactive: [1] 89 % of control | [2] 111 % of control | [3] 92 % of control | [4] 93 % of control | dose: 400.0 mg/kg/injection, schedule: Q01DX009 (ip), vehicle: saline with Tween-80 94 % of control | [5] 95 % of control

Cn1cnccc1=O
inactive: dose: 50.0 mg/kg/injection, schedule: Q01DX009 (ip), vehicle: water 102 % of control | dose: 100.0 mg/kg/injection, schedule: Q01DX009 (ip), vehicle: water 104 % of control | dose: 100.0 mg/kg/injection, schedule: Q04DX003 (ip), vehicle: water 114 % of control | dose: 120.0 mg/kg/injection, schedule: Q04DX003 (ip), vehicle: water 98 % of control | dose: 200.0 mg/kg/injection, schedule: Q01DX009 (ip), vehicle: water 115 % of control | dose: 200.0 mg/kg/injection, schedule: Q04DX003 (ip), vehicle: water 100 % of control and 111 % of control | dose: 333.0 mg/kg/injection, schedule: Q04DX003 (ip), vehicle: water 95 % of control | dose: 400.0 mg/kg/injection, schedule: Q01DX009 (ip), vehicle: water 115 % of control | dose: 400.0 mg/kg/injection, schedule: Q04DX003 (ip), vehicle: water 106 % of control

ClC1(Cl)C2CCCCC21N1CCCCC1 (stereo not drawn)
inactive: [6] 102 % of control | [7] 115 % of control | [8] 104 % of control | [9] 87 % of control | [10] 94 % of control | [11] 98 % of control | [12] 101 % of control

O=[N+]([O-])c1cccc(-[n+]2cc([O-])on2)c1
inactive: [13] 94 % of control | [14] 105 % of control | [15] 96 % of control

O=P(CCCl)(CCCl)CCCl
inactive: [6] 87 % of control | [7] 98 % of control | [9] 87 % of control | [10] 106 % of control | [16] 90 % of control | [12] 101 % of control | [17] 101 % of control

COC(=O)c1ccc(OC)c2nc3c(C=O)c(OC)cc(OC)c3nc12
inactive: [2] 102 % of control | [4] 109 % of control | [5] 95 % of control

CCOC(=O)c1nnc(-c2ccccc2)[nH]c1=O
inactive: [13] 92 % of control | dose: 100.0 mg/kg/injection, schedule: Q01DX009 (ip), vehicle: Klucel (hydroxypropylcellulose) (HPC) 103 % of control | dose: 200.0 mg/kg/injection, schedule: Q01DX009 (ip), vehicle: Klucel (hydroxypropylcellulose) (HPC) 103 % of control

NC(=O)C[CH2][Sn]([c]1ccccc1)([c]1ccccc1)[c]1ccccc1
inactive: dose: 50.0 mg/kg/injection, schedule: Q01DX009 (ip), vehicle: saline with Tween-80 101 % of control | [1] 112 % of control

Nc1ccc2c(c1)C(=O)c1ccccc1-2
inactive: dose: 100.0 mg/kg/injection, schedule: Q01DX001 (ip), vehicle: Klucel (hydroxypropylcellulose) (HPC) 88 % of control | dose: 200.0 mg/kg/injection, schedule: Q01DX001 (ip), vehicle: Klucel (hydroxypropylcellulose) (HPC) 95 % of control | dose: 400.0 mg/kg/injection, schedule: Q01DX001 (ip), vehicle: Klucel (hydroxypropylcellulose) (HPC) 97 % of control

CN(C)C(=O)NCc1cccs1
inactive: dose: 100.0 mg/kg/injection, schedule: Q04DX003 (ip), vehicle: carboxymethylcellulose (CMC) 97 % of control | dose: 200.0 mg/kg/injection, schedule: Q04DX003 (ip), vehicle: carboxymethylcellulose (CMC) 93 % of control | dose: 400.0 mg/kg/injection, schedule: Q04DX003 (ip), vehicle: carboxymethylcellulose (CMC) 104 % of control

COc1cc2cncc(CC(=O)c3ccc4c(c3)OCO4)c2cc1OC
inactive: [2] 106 % of control | [4] 88 % of control

Cc1ccc(S(=O)(=O)C2CCCCC2)cc1
inactive: dose: 50.0 mg/kg/injection, schedule: Q01DX001 (ip), vehicle: carboxymethylcellulose (CMC) 96 % of control | [18] 107 % of control | dose: 200.0 mg/kg/injection, schedule: Q01DX001 (ip), vehicle: carboxymethylcellulose (CMC) 102 % of control | dose: 400.0 mg/kg/injection, schedule: Q01DX001 (ip), vehicle: carboxymethylcellulose (CMC) 102 % of control

S=c1nc[nH]c2nc(N=Nc3cc(Cl)ccc3Cl)[nH]c12
inactive: [8] 101 % of control | [11] 97 % of control

NC(=O)c1nccnc1C(N)=O
inactive: [14] 101 % of control | [2] 96 % of control | [15] 101 % of control | [4] 96 % of control | dose: 400.0 mg/kg/injection, schedule: Q04DX003 (ip), vehicle: Klucel (hydroxypropylcellulose) (HPC) 93 % of control | [5] 96 % of control

CCNC(C)(C)C(=O)c1ccc(Cl)s1
inactive: [1] 96 % of control | [2] 100 % of control | [3] 96 % of control | [4] 100 % of control | [5] 98 % of control

COc1ccc(/C=C2\CSC/C(=C/c3ccc(OC)cc3)C2=O)cc1
inactive: [9] 91 % of control | [10] 95 % of control | [16] 95 % of control | [12] 94 % of control | dose: 400.0 mg/kg/injection, schedule: Q01DX009 (ip), vehicle: saline 87 % of control | [17] 97 % of control

Cc1ccc2c(ccc(/C=C\c3cc(C)c4cccnc4c3O)[n+]2C)c1
inactive: [18] 114 % of control

CC(/C=N\N)=N\N
inactive: dose: 15.0 mg/kg/injection, schedule: Q01DX Z (ip), vehicle: saline 91 % of control | dose: 15.0 mg/kg/injection, schedule: Q01DX Z (oral), vehicle: saline 101 % of control | dose: 30.0 mg/kg/injection, schedule: Q01DX Z (ip), vehicle: saline 108 % of control | dose: 30.0 mg/kg/injection, schedule: Q01DX Z (oral), vehicle: saline 116 % of control | dose: 60.0 mg/kg/injection, schedule: Q01DX Z (ip), vehicle: saline 91 % of control
